Laboratory results reported in PubChem BioAssay (NCI).
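Each compound was tested at five concentrations against cells in 96-well plates for 48 hours. GI50: concentration for 50% inhibition of growth. TGI: total growth inhibition.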

Key:
Experiment in all cases: NCI-60 cell line screen, 48 h
[1] = system: LOX IMVI melanoma
[2] = system: SR leukemia
[3] = system: EKVX NSCLC
[4] = system: TK-10 renal
[5] = system: MOLT-4 leukemia
[6] = system: A549 NSCLC
[7] = system: SW-620 colon
[8] = system: HCT-15 colon
[9] = system: HOP-62 NSCLC
[10] = system: CAKI-1 renal
[11] = system: NCI-H226 lung
[12] = system: NCI-H23 lung
[13] = system: MCF7 breast
[14] = system: ACHN renal
[15] = system: SK-MEL-28 melanoma
[16] = system: HS 578T breast
[17] = system: COLO 205 colon
[18] = system: OVCAR-4 ovarian
[19] = system: SF-268 CNS
[20] = system: RXF 393 renal
[21] = system: M14 melanoma
[22] = system: SF-539 CNS
[23] = system: SF-295 CNS
[24] = system: U251 CNS
[25] = system: 786-0 renal
[26] = system: HT29 colon
[27] = system: PC-3 prostate
[28] = system: KM12 colon
[29] = system: SNB-75 CNS

Compound: O=C(NNc1nc2cc(F)cc(F)c2n2cccc12)c1ncccn1
- GI50 [1]: 0.487 µM
- TGI [1]: 15.8 µM
- GI50 [2]: 0.221 µM
- TGI [2]: > 30 µM
- GI50 [3]: 0.409 µM
- TGI [3]: 8.71 µM
- GI50 [4]: 0.427 µM
- TGI [4]: 8.02 µM
- GI50 [5]: 0.613 µM
- TGI [5]: > 30 µM
- GI50 [6]: 0.437 µM
- TGI [6]: 8.67 µM
- GI50 [7]: 1.01 µM
- TGI [7]: > 30 µM
- GI50 [8]: 0.121 µM
- TGI [8]: 6.21 µM
- GI50 [9]: 0.226 µM
- TGI [9]: 22.4 µM
- GI50 [10]: 0.336 µM
- TGI [10]: 9.5 µM
- GI50 [11]: 0.585 µM
- TGI [11]: 6.67 µM
- GI50 [12]: 1.35 µM
- TGI [12]: > 30 µM
- GI50 [13]: 0.862 µM
- TGI [13]: 10.7 µM
- GI50 [14]: 0.164 µM
- TGI [14]: 3.83 µM
- GI50 [15]: 0.682 µM
- TGI [15]: > 30 µM
- GI50 [16]: 3.18 µM
- TGI [16]: > 28.6 µM
- GI50 [17]: 0.773 µM
- TGI [17]: > 30 µM
- GI50 [18]: 0.801 µM
- TGI [18]: > 23.7 µM
- GI50 [19]: 0.521 µM
- TGI [19]: > 30 µM
- GI50 [20]: 1.31 µM
- TGI [20]: 5.64 µM
- GI50 [21]: 0.39 µM
- TGI [21]: 5.62 µM
- GI50 [22]: 0.728 µM
- TGI [22]: > 16.6 µM
- GI50 [23]: 0.176 µM
- TGI [23]: 4.99 µM
- GI50 [24]: 0.282 µM
- TGI [24]: > 19.1 µM
- GI50 [25]: 0.901 µM
- TGI [25]: > 14.8 µM
- GI50 [26]: 0.94 µM
- TGI [26]: > 30 µM
- GI50 [27]: 0.786 µM
- TGI [27]: > 26.8 µM
- GI50 [28]: 0.537 µM
- TGI [28]: > 30 µM
- GI50 [29]: 0.793 µM
- TGI [29]: > 27.6 µM
